Earlier results, collected in US20070106232A1, “METHOD AND APPARATUS FOR EXTENDING FEEDING TUBE LONGEVITY” (priority 2003, published 2007).
Numbered stars: 1 amine (or outer) side, 2 acyl side, 3 side chain; on linkers, the order of the positions; unused ones are H or OH. Bridge positions count the residues as written; N and C are the ends. Square brackets hold non-standard residues; d marks the D form. Peptide text beside a SMILES is read from it. * marks the point of attachment. hTyr(3S-OH,4S-OH,3'-OSO3H) = N[C@H](C(=O)O)[C@H](O)[C@@H](O)c1ccc(O)c(OS(=O)(=O)O)c1; Orn(4R-OH,5R-OH) = O=C([C@H](C[C@@H](O)[C@@H](O)N[*:3])N[*:1])[*:2]; Pro(3S-OH,4S-Me) = C[C@H]1CN[C@H](C(=O)O)[C@H]1O; X1 = CCCCCOc1ccc(-c2cc(-c3ccc(C(=O)*)cc3)no2)cc1; Gln(3R-OH) = NC(=O)C[C@@H](O)[C@H](N)C(=O)O; Hyp = O=C(O)[C@@H]1C[C@@H](O)CN1

Tests used:
[1] = system: Candida albicans and Candida parapsilosis biofilms
[2] = system: feeding tube colonized with Candida; conditions: nystatin suspension 500,000 units/5 mL in the off cycle; amphotericin B 1 mg/10 mL for one week; tube lumen filled
[3] = system: yeast crust on inner surface of the tube; conditions: segments incubated in vitro overnight, endoscopic brush next day
[4] = system: Candida albicans biofilms; conditions: preformed Candida albicans biofilms; physiological concentrations; time-kill
[5] = system: Candida albicans biofilms
Candida spp. = conditions: including azole-resistant (Candida krusei), less susceptible (C. dubliniensis, C. glabrata) or amphotericin B resistant isolates
[6] = system: fungal colonization of feeding tubes; conditions: pre-procedural preparation of the oropharynx, 1%

C[C@@H]1[C@H](O)[C@@H](C)/C=C/C=C/C=C/C=C/C=C/C=C/C=C/[C@H](O[C@@H]2O[C@H](C)[C@@H](O)[C@H](N)[C@@H]2O)C[C@@H]2O[C@](O)(C[C@@H](O)C[C@@H](O)[C@H](O)CC[C@@H](O)C[C@@H](O)CC(=O)O[C@H]1C)C[C@H](O)[C@H]2C(=O)O [amphotericin B]
activity against Candida biofilms [1]: resistant | clearing of a feeding tube colonized with Candida [2]: unsuccessful | clearing the yeast crust from the inner surface of the tube [3]: unsuccessful

CC[C@H](C)C[C@H](C)CCCCCCCCC(=O)N[C@H]1C[C@@H](O)[C@@H](NCCN)NC(=O)[C@@H]2[C@@H](O)CCN2C(=O)[C@H]([C@H](O)CCN)NC(=O)[C@H]([C@H](O)[C@@H](O)c2ccc(O)cc2)NC(=O)[C@@H]2C[C@@H](O)CN2C(=O)[C@H]([C@@H](C)O)NC1=O [caspofungin]
killing [4]: ≥ 99% | effect of coating of biomaterials on subsequent biofilm development by Candida albicans ([5]; biomaterials coated with drug): inhibitory effect | effects on preformed Candida albicans biofilms ([5]; scanning electron microscopy and confocal scanning laser microscopy): altered the cellular morphology and the metabolic status | minimum inhibitory concentration at which 50% of the sessile cells were inhibited ([5]; sessile Candida albicans cells): well within the drug's therapeutic range | in vitro activity against sessile Candida albicans cells within biofilms ([5]; sessile cells within biofilms): potent in vitro activity | activity against Candida biofilms [1]: showed activity | activity against Candida spp. (Candida spp.): active

[H]/N=C(\N/C(=N/[H])NCCCCCCNC(=N)NC(=N)Nc1ccc(Cl)cc1)Nc1ccc(Cl)cc1 [chlorhexidine]
activity against Candida biofilms [1]: resistant

OC(Cn1cncn1)(Cn1cncn1)c1ccc(F)cc1F [fluconazole]
activity against Candida biofilms [1]: resistant

CCCCCOc1ccc(-c2cc(-c3ccc(C(=O)N[C@H]4C[C@@H](O)[C@@H](O)NC(=O)[C@@H]5[C@@H](O)[C@@H](C)CN5C(=O)[C@H]([C@H](O)CC(N)=O)NC(=O)[C@H]([C@H](O)[C@@H](O)c5ccc(O)c(OS(=O)(=O)O)c5)NC(=O)[C@@H]5C[C@@H](O)CN5C(=O)[C@H]([C@@H](C)O)NC4=O)cc3)no2)cc1 [micofungin] (X1-[Orn(4R-OH,5R-OH)]T[Hyp][hTyr(3S-OH,4S-OH,3'-OSO3H)][Gln(3R-OH)][Pro(3S-OH,4S-Me)]; lactam 1-C)
activity against Candida biofilms [1]: showed activity

C[C@@H]1[C@H](O)[C@@H](C)/C=C/C=C/CC/C=C/C=C/C=C/C=C/C(O[C@H]2O[C@H](C)[C@@H](O)[C@H](N)[C@@H]2O)CC2O[C@](O)(CC(O)C(O)CCC(O)CC(O)CC(O)CC(=O)O[C@H]1C)CC(O)C2C(=O)O (some centres unmarked) [nystatin]
activity against Candida biofilms [1]: resistant | clearing of a feeding tube colonized with Candida [2]: unsuccessful | clearing the yeast crust from the inner surface of the tube [3]: unsuccessful

C[C@@H](c1nc(-c2ccc(C#N)cc2)cs1)[C@](O)(Cn1cncn1)c1ccc(F)cc1F [ravuconazole]
activity against Candida biofilms [1]: resistant

CN(C/C=C/C#CC(C)(C)C)Cc1cccc2ccccc12 [terbenafine]
activity against Candida biofilms [1]: resistant

C[C@@H](c1ncncc1F)[C@](O)(Cn1cncn1)c1ccc(F)cc1F [voriconazole]
activity against Candida biofilms [1]: resistant

neomycin
prophylaxis of fungal colonization of feeding tubes [6]: failed
